Measured values: article PMC9911596 (Nature Communications, 2023)

Target: T1, Vtc1/Vtc3/Vtc4 complex (VTC complex) (Saccharomyces cerevisiae, UniProt P47075+Q02725, Q02725:Y22F/Q02725:K26A/Q02725:K130A)
T1 construct: full-length subunits co-expressed in Expi293F; Vtc1 C-terminal HA, Vtc3 N-terminal 3xFlag, Vtc4 C-terminal 2xStrep; detergent-purified; 3:1:1 pentamer; with Vacuolar transporter chaperone complex subunit 1
T1 sequence (P47075 1-721): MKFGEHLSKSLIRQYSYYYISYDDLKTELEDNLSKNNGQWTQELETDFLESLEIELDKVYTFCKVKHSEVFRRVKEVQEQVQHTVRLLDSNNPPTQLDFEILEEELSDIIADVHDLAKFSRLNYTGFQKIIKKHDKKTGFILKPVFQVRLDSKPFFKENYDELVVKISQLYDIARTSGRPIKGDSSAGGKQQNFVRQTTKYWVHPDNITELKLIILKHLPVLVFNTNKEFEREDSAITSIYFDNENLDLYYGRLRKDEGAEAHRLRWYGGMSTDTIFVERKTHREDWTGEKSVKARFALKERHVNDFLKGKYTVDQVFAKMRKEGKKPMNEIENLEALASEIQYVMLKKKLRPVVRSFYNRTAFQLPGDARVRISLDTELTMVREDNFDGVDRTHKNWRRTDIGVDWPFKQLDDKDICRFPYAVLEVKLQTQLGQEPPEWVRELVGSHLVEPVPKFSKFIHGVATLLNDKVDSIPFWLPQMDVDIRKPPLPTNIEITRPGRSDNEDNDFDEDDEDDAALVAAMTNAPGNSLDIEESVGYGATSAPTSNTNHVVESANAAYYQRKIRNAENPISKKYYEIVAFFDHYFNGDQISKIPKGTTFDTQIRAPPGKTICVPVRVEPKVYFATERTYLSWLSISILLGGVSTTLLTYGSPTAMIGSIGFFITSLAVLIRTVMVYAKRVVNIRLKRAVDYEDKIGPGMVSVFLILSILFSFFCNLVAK
T1 sequence (Q02725 1-835 Y22F/K26A/K130A): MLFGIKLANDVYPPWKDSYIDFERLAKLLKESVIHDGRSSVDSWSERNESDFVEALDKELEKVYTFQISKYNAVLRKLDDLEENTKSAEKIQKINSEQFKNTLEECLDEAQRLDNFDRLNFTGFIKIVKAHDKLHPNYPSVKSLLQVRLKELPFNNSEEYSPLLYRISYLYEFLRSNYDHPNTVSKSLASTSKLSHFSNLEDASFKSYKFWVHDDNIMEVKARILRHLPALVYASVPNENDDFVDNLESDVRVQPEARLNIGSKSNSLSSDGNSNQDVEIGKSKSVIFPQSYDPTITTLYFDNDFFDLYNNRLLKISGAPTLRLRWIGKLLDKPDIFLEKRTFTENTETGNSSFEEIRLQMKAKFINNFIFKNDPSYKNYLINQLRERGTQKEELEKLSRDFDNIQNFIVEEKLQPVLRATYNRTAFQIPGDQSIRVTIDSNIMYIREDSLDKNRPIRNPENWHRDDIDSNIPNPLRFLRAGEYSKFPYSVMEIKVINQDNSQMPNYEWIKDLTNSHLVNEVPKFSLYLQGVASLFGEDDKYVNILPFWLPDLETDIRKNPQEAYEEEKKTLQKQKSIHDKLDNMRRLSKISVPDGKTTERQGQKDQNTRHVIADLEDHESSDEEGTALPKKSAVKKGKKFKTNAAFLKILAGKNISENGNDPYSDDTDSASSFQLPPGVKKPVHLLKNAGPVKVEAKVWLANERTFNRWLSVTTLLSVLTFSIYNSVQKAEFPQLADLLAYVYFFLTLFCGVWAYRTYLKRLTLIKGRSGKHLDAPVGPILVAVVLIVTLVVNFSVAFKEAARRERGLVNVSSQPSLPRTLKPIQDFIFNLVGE
T1 sequence (P40046 2-129 partner): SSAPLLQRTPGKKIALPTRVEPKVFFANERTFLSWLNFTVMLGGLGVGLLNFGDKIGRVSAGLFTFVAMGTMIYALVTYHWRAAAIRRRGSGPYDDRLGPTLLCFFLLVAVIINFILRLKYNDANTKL
Experiment: polyP synthesis, TBE-PAGE
Type: biochemical
Settings: activator; 15 mM ATP, 10 mM MgCl2, 1 mM MnCl2, 0.5 mM pyrophosphate, 27 °C, 4 h; SPX PBC mutant

O=P(O)(O)O[C@H]1[C@H](OP(=O)(O)O)[C@@H](OP(=O)(O)O)[C@H](OP(=O)(O)O)[C@@H](OP(=O)(O)O)[C@H]1OP(=O)(O)O [InsP6]
polyP synthesis, TBE-PAGE: residues had little effect on polyP synthesis
